Laboratory results from the supplement of paper PMC9013687.

Experiments:
Danio rerio embryo [1] = experiment: EC10 Bladder size_Decrease; higher = less potent; conditions: exposure time: 4 dpf
Method: (§1)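 Zebrafish embryos (UFZ-OBI strain) were exposed from 2 hpf for 48 h (2 dpf) or 96 h (4 dpf) at 28 °C; spontaneous tail coiling was scored at 25 hpf. Morphological features from automated image analysis (FishInspector), heart rate and locomotor response were fitted with drc models. Quantal endpoints were dichotomised at 2.5 SD from controls and fitted with a log-logistic model; heart rate, pigmentation and STC were normalised to the replicate control mean. Betamethasone was tested as betamethasone dipropionate, diflorasone as diflorasone diacetate.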

Danio rerio embryo [2] = experiment: EC50 Bladder size_Decrease; conditions: exposure time: 4 dpf
Method: as §1

Danio rerio embryo [3] = experiment: EC20 Lack of SB; higher = less potent; conditions: exposure time: 4 dpf
Method: as §1

Danio rerio embryo [4] = experiment: EC10 Eye-jaw distance_Decrease; higher = less potent; conditions: exposure time: 4 dpf
Method: as §1

Danio rerio embryo [5] = experiment: EC50 Eye-jaw distance_Decrease; conditions: exposure time: 4 dpf
Method: as §1

Danio rerio embryo [6] = test system: Danio rerio embryo
Method: as §1

Danio rerio embryo [7] = experiment: EC20 Body length_Decrease; higher = less potent
Method: as §1

Danio rerio embryo [8] = experiment: EC20 LMR dark; higher = less potent; conditions: exposure time: 4 dpf
Method: as §1

Danio rerio embryo [9] = experiment: EC20 Pericard size_Increase; higher = less potent; conditions: exposure time: 4 dpf
Method: as §1

Danio rerio embryo [10] = experiment: EC20 Curvature_Increase; higher = less potent
Method: as §1

Danio rerio embryo [11] = experiment: EC20 Bladder size_Decrease; higher = less potent; conditions: exposure time: 4 dpf
Method: as §1

Danio rerio embryo [12] = experiment: EC50 Yolk sac size_Increase; conditions: exposure time: 4 dpf
Method: as §1

Danio rerio embryo [13] = experiment: EC10 Any effect; higher = less potent
Method: as §1

Danio rerio embryo [14] = experiment: EC20 Eye-jaw distance_Decrease; higher = less potent; conditions: exposure time: 4 dpf
Method: as §1

Danio rerio embryo [15] = experiment: EC20 Otolith-eye distance_Decrease; higher = less potent; conditions: exposure time: 4 dpf
Method: as §1

Danio rerio embryo [16] = experiment: EC10 Curvature_Increase; higher = less potent
Method: as §1

Danio rerio embryo [17] = experiment: spontaneous tail coiling frequency (coils/min/embryo); higher = more spontaneous movement; conditions: 25 hpf
Method: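 Spontaneous tail coilings of zebrafish embryos exposed from 2 hpf were recorded at 24-25 hpf in 1-min videos and detected by a KNIME workflow from grey-value variance. Betamethasone was tested as the dipropionate, diflorasone as the diacetate.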

Danio rerio embryo [18] = experiment: EC10 Body length_Decrease; higher = less potent
Method: as §1

Danio rerio embryo [19] = experiment: EC50 Pericard size_Increase; conditions: exposure time: 4 dpf
Method: as §1

Danio rerio embryo [20] = experiment: EC10 Otolith-eye distance_Decrease; higher = less potent; conditions: exposure time: 4 dpf
Method: as §1

Danio rerio embryo [21] = experiment: EC20 Yolk sac size_Increase; higher = less potent; conditions: exposure time: 4 dpf
Method: as §1

Danio rerio embryo [22] = experiment: EC50 Curvature_Increase
Method: as §1

Danio rerio embryo [23] = experiment: EC10 LMR dark; higher = less potent; conditions: exposure time: 4 dpf
Method: as §1

Danio rerio embryo [24] = experiment: EC10 Pericard size_Increase; higher = less potent; conditions: exposure time: 4 dpf
Method: as §1

Danio rerio embryo [25] = experiment: EC10 Yolk sac size_Increase; higher = less potent; conditions: exposure time: 4 dpf
Method: as §1

Danio rerio embryo [26] = conditions: exposure time: 4 dpf
Method: as §1

Danio rerio embryo [27] = experiment: EC50 Body length_Decrease
Method: as §1

Danio rerio embryo [28] = experiment: EC50 Otolith-eye distance_Decrease; conditions: exposure time: 4 dpf
Method: as §1

Danio rerio embryo [29] = experiment: EC20 Any effect; higher = less potent
Method: as §1

C[Si](Cn1cncn1)(c1ccc(F)cc1)c1ccc(F)cc1 [Flusilazole]
Conditions	EC10 Bladder size Decrease [µM]	EC10 Eye-jaw distance Decrease [µM]	EC10 LMR dark [µM]	EC10 Otolith-eye distance Decrease [µM]	EC10 Pericard size Increase [µM]	EC10 Yolk sac size Increase [µM]	EC20 Bladder size Decrease [µM]	EC20 Eye-jaw distance Decrease [µM]	EC20 LMR dark [µM]	EC20 Lack of SB [µM]	EC20 Otolith-eye distance Decrease [µM]	EC20 Pericard size Increase [µM]	EC20 Yolk sac size Increase [µM]	EC50 Bladder size Decrease [µM]	EC50 Eye-jaw distance Decrease [µM]	EC50 LMR dark [µM]	EC50 Otolith-eye distance Decrease [µM]	EC50 Pericard size Increase [µM]	EC50 Yolk sac size Increase [µM]
Danio rerio embryo [1]	1.46	–	–	–	–	–	–	–	–	–	–	–	–	–	–	–	–	–	–
Danio rerio embryo [2]	–	–	–	–	–	–	–	–	–	–	–	–	–	2.14	–	–	–	–	–
Danio rerio embryo [3]	–	–	–	–	–	–	–	–	–	1.99	–	–	–	–	–	–	–	–	–
Danio rerio embryo [4]	–	2.2	–	–	–	–	–	–	–	–	–	–	–	–	–	–	–	–	–
Danio rerio embryo [5]	–	–	–	–	–	–	–	–	–	–	–	–	–	–	3.73	–	–	–	–
Danio rerio embryo [8]	–	–	–	–	–	–	–	–	1.72	–	–	–	–	–	–	–	–	–	–
Danio rerio embryo [9]	–	–	–	–	–	–	–	–	–	–	–	5.53	–	–	–	–	–	–	–
Danio rerio embryo [11]	–	–	–	–	–	–	1.69	–	–	–	–	–	–	–	–	–	–	–	–
Danio rerio embryo [12]	–	–	–	–	–	–	–	–	–	–	–	–	–	–	–	–	–	–	10.1
Danio rerio embryo [14]	–	–	–	–	–	–	–	2.67	–	–	–	–	–	–	–	–	–	–	–
Danio rerio embryo [15]	–	–	–	–	–	–	–	–	–	–	4.25	–	–	–	–	–	–	–	–
Danio rerio embryo [19]	–	–	–	–	–	–	–	–	–	–	–	–	–	–	–	–	–	6.51	–
Danio rerio embryo [20]	–	–	–	3.65	–	–	–	–	–	–	–	–	–	–	–	–	–	–	–
Danio rerio embryo [21]	–	–	–	–	–	–	–	–	–	–	–	–	5.53	–	–	–	–	–	–
Danio rerio embryo [23]	–	–	1.3	–	–	–	–	–	–	–	–	–	–	–	–	–	–	–	–
Danio rerio embryo [24]	–	–	–	–	5.02	–	–	–	–	–	–	–	–	–	–	–	–	–	–
Danio rerio embryo [25]	–	–	–	–	–	3.89	–	–	–	–	–	–	–	–	–	–	–	–	–
Danio rerio embryo [26]	–	–	–	–	–	–	–	–	–	–	–	–	–	–	–	2.77	–	–	–
Danio rerio embryo [28]	–	–	–	–	–	–	–	–	–	–	–	–	–	–	–	–	5.51	–	–

Conditions	EC10 Any effect [µM]	EC10 Body length Decrease [µM]	EC10 Curvature Increase [µM]	EC20 Any effect [µM]	EC20 Body length Decrease [µM]	EC20 Curvature Increase [µM]	EC50 Any effect [µM]	EC50 Body length Decrease [µM]	EC50 Curvature Increase [µM]	EC50 STC decrease [µM]	spontaneous tail coiling frequency
Danio rerio embryo [6], exposure time: 2 dpf	–	–	–	–	–	–	7.6	–	–	–	–
Danio rerio embryo [6], exposure time: 4 dpf	–	–	–	–	–	–	2.65	–	–	–	–
Danio rerio embryo [6], exposure time: 25 h	–	–	–	–	–	–	–	–	–	8.34	–
Danio rerio embryo [7], exposure time: 2 dpf	–	–	–	–	8.01	–	–	–	–	–	–
Danio rerio embryo [7], exposure time: 4 dpf	–	–	–	–	2.55	–	–	–	–	–	–
Danio rerio embryo [10], exposure time: 2 dpf	–	–	–	–	–	7.67	–	–	–	–	–
Danio rerio embryo [10], exposure time: 4 dpf	–	–	–	–	–	3.03	–	–	–	–	–
Danio rerio embryo [13], exposure time: 2 dpf	5.28	–	–	–	–	–	–	–	–	–	–
Danio rerio embryo [13], exposure time: 4 dpf	1.6	–	–	–	–	–	–	–	–	–	–
Danio rerio embryo [16], exposure time: 2 dpf	–	–	6.73	–	–	–	–	–	–	–	–
Danio rerio embryo [16], exposure time: 4 dpf	–	–	2.07	–	–	–	–	–	–	–	–
Danio rerio embryo [17], 1.98167 µM	–	–	–	–	–	–	–	–	–	–	2.65
Danio rerio embryo [17], 3.96335 µM	–	–	–	–	–	–	–	–	–	–	1.93
Danio rerio embryo [17], 6.3 µM	–	–	–	–	–	–	–	–	–	–	1.95
Danio rerio embryo [17], 7.92669 µM	–	–	–	–	–	–	–	–	–	–	1.22
Danio rerio embryo [17], 9.4 µM	–	–	–	–	–	–	–	–	–	–	1.84
Danio rerio embryo [17], 14.1 µM	–	–	–	–	–	–	–	–	–	–	1.52
Danio rerio embryo [17], 15.8534 µM	–	–	–	–	–	–	–	–	–	–	0
Danio rerio embryo [17], 21.1 µM	–	–	–	–	–	–	–	–	–	–	0
Danio rerio embryo [17], 31.7 µM	–	–	–	–	–	–	–	–	–	–	0
Danio rerio embryo [17], 31.7068 µM	–	–	–	–	–	–	–	–	–	–	0
Danio rerio embryo [17], 47.6 µM	–	–	–	–	–	–	–	–	–	–	0
Danio rerio embryo [18], exposure time: 2 dpf	–	6.91	–	–	–	–	–	–	–	–	–
Danio rerio embryo [18], exposure time: 4 dpf	–	2.31	–	–	–	–	–	–	–	–	–
Danio rerio embryo [22], exposure time: 2 dpf	–	–	–	–	–	–	–	–	9.58	–	–
Danio rerio embryo [22], exposure time: 4 dpf	–	–	–	–	–	–	–	–	5.85	–	–
Danio rerio embryo [27], exposure time: 2 dpf	–	–	–	–	–	–	–	10.3	–	–	–
Danio rerio embryo [27], exposure time: 4 dpf	–	–	–	–	–	–	–	3.04	–	–	–
Danio rerio embryo [29], exposure time: 2 dpf	–	–	–	6.04	–	–	–	–	–	–	–
Danio rerio embryo [29], exposure time: 4 dpf	–	–	–	1.92	–	–	–	–	–	–	–
